The text below walks through data of patent publication US6699877B2 (Gruenenthal GmbH, priority 2000, dated 2004).

Test [1] deals with T1, glycine binding site of the NMDA receptor channel (Rattus norvegicus, UniProt P35439).
T1 construct: from tissue; host or cells: rat brain cortex and hippocampus membrane homogenate
Put plainly: Receptor binding, displacement of (3H)-MDL 105.519 on rat cerebral membrane homogenates. Particulars: 1 nmol/l (3H)-MDL 105.519.

The test system of the next test is AMPA receptor channels. Put plainly: AMPA-induced ionic currents in RNA-injected Xenopus oocytes. Type of test: cell-based, rat. Particulars: 10 μmol/l compound; AMPA 100 μmol/l; n = 2. How it is done: Xenopus oocytes from stages V and VI (Dumont, J. N., Journal of Morphology, Vol. 136, 1972) were micro-injected with total RNA from brain tissue of adult rats (100-130 ng/cell) and kept in the culture medium (composition in mmol/l: 88.0 NaCl, 1.0 KCl, 1.5 CaCl2, 0.8 MgSO4, 2.4 NaHCO3, 5 HEPES, 100 IU/ml penicillin, 100 μg/ml streptomycin, pH 7.4) for up to 10 days at 20° C. Transmembranous ionic currents were recorded as in conventional two-electrode voltage clamp technology with a holding potential of −70 mV (P. Bloms-Funke P, M. Madeja, U. Muβhoff, E.-J. Speckman, Neuroscience Letters, Vol. 205, p. 115, 1996). The OTC interface and the Cellworks Software were used for recording data and controlling the test apparatus (npi, FRG). […] To test the effects of substances brought about via the glycine B-binding site of the NMDA receptor channel, the glycine dosage/response curve was recorded with and without the respective compound according to the invention. […] The data was analyzed using Igor-Pro software (Version 3.1, WaveMetrics USA). […] The significance for unpaired measured quantities is determined by the Mann-Whitney U-Test and for paired measured quantities by the Wilcoxon test (Sysstat. SPSS Inc., USA). EC50 values are calculated according to the following formula: […]

The term Ki denotes a measure of affinity in units of concentration, obtained from inhibition or displacement. Lower therefore signals a stronger hold on the target. Consider `O=C(O)C1Nc2cc(Cl)cc(Cl)c2C2C=CCC12` (stereo not drawn) [Example 2, 7,9-dichloro-3a,4,5,9b-tetrahydro-3H-cyclopenta[c]quinoline-4-carboxylic Acid], for which, in test [1] (10 μmol/l test substance, read-out: Displacement (%, 10 μmol/l) of radioactive ligand from specific binding), the inhibition at 10 µM turned out to be 100%. In addition, affinity in test [1] (mean from three independent experiments, from IC50 by Cheng-Prussoff equation) was put at a Ki of 0.3 µM. The “AMPA-induced ionic currents Inhibition with 10 μmol/l of compounds according to the invention” value in the test on AMPA receptor channels was 5.4% (n = 2).
